Like-named read-outs stand apart in the source and are kept apart here.
How the values were obtained:
CYP2D6 = target: T1, CYP2D6 (Homo sapiens, UniProt P10635); test: Biochemical assay for CYP enzyme inhibition, P450-Glo CYP2D6 Screening System; assay type: in vitro ADME
T1 construct: purchased Promega
Description: Test Example 5: Biochemical Assay for CYP Enzyme (Cytochrome P450) Inhibition
P450-Glo™ CYP2D6 Screening System, (Promega);
BMG PHERAstar FS Luminescent.
The experiments were carried out separately according to the instructions of the kits. The steps were as follows:
3.2. Inhibition Against CYP2D6:
Test group: The test compounds at different concentrations were added into a microplate, and Luciferin-ME EGE (3 μM), K3PO4 (100 mM), and CYP2D6 (5 nM) were added into each well, and pre-incubated at room temperature for 10 min. Thereafter, an NADPH regeneration system was added. The mixture was reacted at 37° C. for 30 min. Finally, an equal volume of detection buffer was added and incubated at room temperature for 20 min, followed by chemiluminescence detection.
Negative control group: The experimental method for the negative control group was the same as that for the test group, except that the test compound was not added.
Blank control group: The experimental method for the blank control group was the same as that for the test group, except that the test compound was not added and that CYP2D6 was replaced with CYP2D6 Membrance (5 nM).
Percentage inhibition=(1−(the chemiluminescent signal value of the test compound group at a certain test concentration−the chemiluminescent signal value of the blank control group)/(the chemiluminescent signal value of the negative control group−the chemiluminescent signal value of the blank control group))×100%.
When the percentage inhibition was between 30% and 80%, a single value or a value range of the half maximal inhibitory concentration (IC50) of the compound against the CYP enzyme was estimated based on the following equation: IC50=X×(1−percentage inhibition)/percentage inhibition, wherein X was the test concentration of the compound.

[1] = target: T2, recombinant full-length human PTPN11 (SHP2) (Homo sapiens, UniProt Q06124); test: Inhibition of in vitro enzyme activity of SHP2 (DiFMUP fluorescence endpoint assay); assay type: biochemical; conditions: SHP2 0.5 nM, DiFMUP 200 μM, IRS-1 0.5 μM; 60 min incubation
T2 construct: recombinant full-length human PTPN11 (SHP2), active (SignalChem); purchased SignalChem
T2 sequence (Q06124 1-593): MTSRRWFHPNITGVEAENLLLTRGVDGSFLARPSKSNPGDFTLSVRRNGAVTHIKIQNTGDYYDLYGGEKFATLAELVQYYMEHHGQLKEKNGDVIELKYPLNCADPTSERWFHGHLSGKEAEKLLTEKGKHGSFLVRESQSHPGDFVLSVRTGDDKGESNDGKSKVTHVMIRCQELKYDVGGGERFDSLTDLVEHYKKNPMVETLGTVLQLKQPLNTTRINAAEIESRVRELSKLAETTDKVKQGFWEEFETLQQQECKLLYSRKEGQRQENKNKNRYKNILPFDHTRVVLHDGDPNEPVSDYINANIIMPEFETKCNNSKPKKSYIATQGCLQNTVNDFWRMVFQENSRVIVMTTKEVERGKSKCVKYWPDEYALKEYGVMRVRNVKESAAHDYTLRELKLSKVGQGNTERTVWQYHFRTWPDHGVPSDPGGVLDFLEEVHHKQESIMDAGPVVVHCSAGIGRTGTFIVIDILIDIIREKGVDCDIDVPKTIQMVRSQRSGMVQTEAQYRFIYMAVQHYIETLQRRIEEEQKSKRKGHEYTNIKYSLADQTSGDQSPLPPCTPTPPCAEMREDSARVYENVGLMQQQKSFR
Description: Test Example 1: Experiment on the Inhibition of In Vitro Enzyme Activity of SHP2 (Protein Phosphatase)
phosphatase: recombinant full-length human PTPN11 (SHP2), active (SignalChem);
substrate: 6,8-difluoro-4-methylumbelliferyl phosphate (DiFMUP) (Invitrogen);
activating peptide: IRS1_pY1172(dPEG8)pY1222 (IRS1) (BPS Bioscience);
terminator: bpv(phen) (bpv) (Abcam).
SHP2 concentration: 0.5 nM;
DiFMUP concentration: 200 μM;
IRS-1 concentration: 0.5 μM;
bpv concentration: 160 μM;
buffer systems: 60 mM Hepes pH 7.2; 75 mM NaCl; 75 mM KCl; 0.05% surfactant P20; 1 mM EDTA; 5 mM DTT;
incubation duration of compound and enzyme: 60 minutes;
reaction time of enzyme and substrate: 30 minutes;
parameters for microplate reader: BMG PHERAstar fluorescence microplate reader at an excitation wavelength of 340 nm and an emission wavelength of 450 nm.
Test group: A mixture of the test compound and the phosphatase SHP2 together with the activating peptide IRS-1 were incubated in the buffer system at room temperature for 60 minutes. The substrate DiFMUP was added to initiate the reaction and incubated at room temperature for 30 minutes. Thereafter, bpv was added to terminate the reaction. The reaction plate was placed in the microplate reader, and the fluorescence intensities of the wells in the plate were measured using an endpoint assay.
Negative group: The experimental method for the negative group was the same as that for the test group, except that the test compound was substituted with 0.05% aqueous solution of DMSO.
Blank group: The experimental method for the blank group was the same as that for the test group, except that the test compound was substituted with 0.05% aqueous solution of DMSO and that SHP2 was not added.
The relative inhibitory activity was calculated for the test group at each concentration based on the following equation: inhibition rate (%)=100%−(the fluorescence intensity of the test group−the fluorescence intensity of the blank group)/(the fluorescence intensity of the negative group−the fluorescence intensity of the blank group)×100%. The half maximal inhibitory concentration (IC50) of the compound was calculated by fitting the curve according to the four-parameter logistic model.

[2] = system: NCI-H358 cell (human non-small cell lung cancer cell); test: Inhibition of the proliferation activity of NCI-H358 cell (CellTiter-Glo); assay type: cell-based; conditions: 120 h, 5 days
Description: Test Example 4: Experiment on the Inhibition of the Proliferation Activity of NCI-H358 Cell (Human Non-Small Cell Lung Cancer Cell)
cell: NCI-H358 (Nanjing CoBioer);
kit: CellTiter-Glo® Luminescent Cell Viability Assay Kit (Promega).
inoculation amount of cell: 1500 cells/well;
incubation conditions for compounds: 37° C., 5% CO2;
incubation duration: 5 days;
detecting temperature: room temperature;
chemiluminescence detection using the BMG PHERAstar FS reader.
Cells were cultured in a medium containing 10% fetal bovine serum under the culture conditions of 37° C. and 5% CO2. An appropriate amount of cells were plated into a 96-well plate and cultured overnight in an incubator to allow the cells to adhere to the wall. The following day, the medium was removed and a complete medium containing a pre-diluted compound was added and incubated at 37° C. for 5 days. On the fifth day, the detection reagent CellTiter-Glo® was added into each well. Chemiluminescence was adopted to detect the relative luminescence units (RLUs) of the wells.
The result of a well containing cell-free medium, treated with CellTiter-Glo®, was obtained as the blank value. Cell viability (%)=(sample RLU−blank RLU)/(vehicle RLU−blank RLU)×100%, and maximum inhibition rate (%)=100%−cell viabilitymax. conc. (%). The half maximal inhibitory concentration (IC50) of the compound was calculated by fitting the curve according to the four-parameter logistic model.

[3] = estimated from percentage inhibition, read-out: IC50 (μM) CYP2D6

T1 sequence (P10635 whole entry): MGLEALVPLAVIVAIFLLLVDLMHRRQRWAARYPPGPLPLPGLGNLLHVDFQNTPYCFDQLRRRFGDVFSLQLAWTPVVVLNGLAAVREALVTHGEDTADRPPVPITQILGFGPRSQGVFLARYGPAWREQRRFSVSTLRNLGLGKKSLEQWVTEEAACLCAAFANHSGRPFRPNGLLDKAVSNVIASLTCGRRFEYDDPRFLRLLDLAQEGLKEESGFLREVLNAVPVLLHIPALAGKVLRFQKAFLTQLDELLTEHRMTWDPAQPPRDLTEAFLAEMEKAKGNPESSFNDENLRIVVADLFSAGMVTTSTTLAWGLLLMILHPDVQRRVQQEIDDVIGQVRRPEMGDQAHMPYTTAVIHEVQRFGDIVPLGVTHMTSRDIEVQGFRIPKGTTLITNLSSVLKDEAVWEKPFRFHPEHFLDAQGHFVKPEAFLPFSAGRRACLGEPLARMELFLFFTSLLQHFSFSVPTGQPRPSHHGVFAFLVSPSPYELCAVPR

SMILES | IC50 (CYP2D6; [3]) [µM] | IC50 [1] [nM] | IC50 [2] [nM] | IC50 (CYP2D6) [µM]
C[C@@H]1OCC2(CCN(c3ncc(Sc4ccnc(N5CCCC5CO)c4Cl)nc3CO)CC2)[C@@H]1N (some centres unmarked) [Example 2] | > 10 | 1.82 | 40 | 
C[C@@H]1OCC2(CCN(c3ncc(Sc4ccnc(N5CC(CS(C)(=O)=O)C5)c4Cl)nc3CO)CC2)[C@@H]1N [Example 26, (3-((3S,4S)-4-amino-3-methyl-2-oxa-8-azaspiro[4.5]decan-8-yl)-6-(3-chloro-2-(3-(methylsulfonylmethyl)azetidin-1-yl)pyridin-4-ylthio)pyrazin-2-yl)methanol] |  | 0.7 | 32 | > 10
CC(O)C1CN(c2nccc(Sc3cnc(N4CCC5(CC4)CO[C@@H](C)[C@H]5N)c(CO)n3)c2Cl)C1 (stereo partly drawn) [Example 17, 1-(1-(4-(5-((3S,4S)-4-amino-3-methyl-2-oxa-8-azaspiro[4.5]decan-8-yl)-6-(hydroxymethyl)pyrazin-2-ylthio)-3-chloropyridin-2-yl)azetidin-3-yl)ethan-1-ol] |  | 2.5 | 39 | > 10
C[C@@H]1OCC2(CCN(c3ncc(Sc4ccnc(N5CC(C)(CS(C)(=O)=O)C5)c4Cl)nc3CO)CC2)[C@@H]1N [Example 29, (3-((3S,4S)-4-amino-3-methyl-2-oxa-8-azaspiro[4.5]decan-8-yl)-6-(3-chloro-2-(3-methyl-3-(methylsulfonylmethyl)azetidin-1-yl)pyridin-4-ylthio)pyrazin-2-yl)methanol] |  | 1.68 | 40 | > 10
CC(C)(O)C1CN(c2nccc(Sc3ncc(N4CCC5(CC4)Cc4ncccc4[C@H]5N)nc3N)c2Cl)C1 [Example 46, (S)-2-(1-(4-(3-amino-5-(5-amino-5,7-dihydrospiro[cyclopenta[b]pyridine-6,4′-piperidin]-1′-yl)pyrazin-2-ylthio)-3-chloropyridin-2-yl)azetidin-3-yl)propan-2-ol] | > 10 | 2.6 | 28 | 
C[C@@H]1OCC2(CCN(c3ncc(Sc4ccnc(N5CC(CC#N)C5)c4Cl)nc3CO)CC2)[C@@H]1N [Example 5, 2-(1-(4-(5-((3S,4S)-4-amino-3-methyl-2-oxa-8-azaspiro[4.5]decan-8-yl)-6-(hydroxymethyl)pyrazin-2-ylthio)-3-chloropyridin-2-yl)azetidin-3-yl)acetonitrile] |  | 1.22 | 34 | > 10
COCC1CN(c2nccc(Sc3cnc(N4CCC5(CC4)CO[C@@H](C)[C@H]5N)c(CO)n3)c2Cl)C1 [Example 21, (3-((3S,4S)-4-amino-3-methyl-2-oxa-8-azaspiro[4.5]decan-8-yl)-6-(3-chloro-2-(3-(methoxymethyl)azetidin-1-yl)pyridin-4-ylthio)pyrazin-2-yl)methanol] |  | 1.15 | 30 | > 10
C[C@@H]1OCC2(CCN(c3ncc(Sc4ccnc(N5CC(C(C)(C)O)C5)c4Cl)nc3CO)CC2)[C@@H]1N [Example 12, 2-(1-(4-(5-((3S,4S)-4-amino-3-methyl-2-oxa-8-azaspiro[4.5]decan-8-yl)-6-(hydroxymethyl)pyrazin-2-ylthio)-3-chloropyridin-2-yl)azetidin-3-yl)propan-2-ol] |  | 2.5 | 18 | > 10
CC(C)(O)C1CN(c2nccc(Sc3cnc(N4CCC5(CC4)Cc4ccccc4[C@H]5N)c(CO)n3)c2Cl)C1 [Example 23, (S)-2-(1-(4-(5-(1-amino-1,3-dihydrospiro[indene-2,4′-piperidin]-1′-yl)-6-(hydroxymethyl)pyrazin-2-ylthio)-3-chloropyridin-2-yl)azetidin-3-yl)propan-2-ol] | > 10 | 1.9 | 5 | 
C[C@@H]1OCC2(CCN(c3ncc(Sc4ccnc(N5CC(CO)C5)c4Cl)nc3CO)CC2)[C@@H]1N [Example 6, (3-((3S,4S)-4-amino-3-methyl-2-oxa-8-azaspiro[4.5]decan-8-yl)-6-(3-chloro-2-(3-(hydroxymethyl)azetidin-1-yl)pyridin-4-ylthio)pyrazin-2-yl)methanol] |  | 1.76 | 74 | > 10
C[C@@H]1OCC2(CCN(c3ncc(Sc4ccnc(N5CC(C(C)(C)O)C5)c4F)nc3CO)CC2)[C@@H]1N [Example 40, 2-(1-(4-(5-((3S,4S)-4-amino-3-methyl-2-oxa-8-azaspiro[4.5]decan-8-yl)-6-(hydroxymethyl)pyrazin-2-ylthio)-3-fluoropyridin-2-yl)azetidin-3-yl)propan-2-ol] |  | 4.13 | 30 | > 10
CC(C)(O)C1CN(c2nccc(Sc3cnc(N4CCC5(CC4)COC[C@H]5N)c(CO)n3)c2Cl)C1 [Example 13, (S)-2-(1-(4-(5-(4-amino-2-oxa-8-azaspiro[4.5]decan-8-yl)-6-(hydroxymethyl)pyrazin-2-ylthio)-3-chloropyridin-2-yl)azetidin-3-yl)propan-2-ol] | > 10 | 4.9 | 260 | 
CC(C)(O)C1CN(c2nccc(Sc3cnc(N4CCC5(CC4)Oc4ccccc4[C@H]5N)c(CO)n3)c2Cl)C1 [Example 22, (R)-2-(1-(4-(5-(3-amino-3H-spiro[benzofuran-2,4′-piperidin]-1′-yl)-6-(hydroxymethyl)pyrazin-2-ylthio)-3-chloropyridin-2-yl)azetidin-3-yl)propan-2-ol] | > 10 | 4.3 | 31 | 
Cc1nc(N2CCC3(CC2)CO[C@@H](C)[C@H]3N)c(CO)nc1Sc1ccnc(N2CCCC2CO)c1Cl (some centres unmarked) [Example 1] |  | 6.03 |  | > 10

Reference: US20230212180A1, “SUBSTITUTED PYRAZINE COMPOUND, PHARMACEUTICAL COMPOSITION COMPRISING SAME, AND USE THEREOF” (Sichuan Kelun-Biotech Biopharmaceutical Co., Ltd., priority 2020, published 2023)
